The source of these data is PubChem BioAssay (NCI).

Assay in all cases: NCI tumour cell line growth inhibition, 48 h
The subject of assay [1] is MCF7 breast.
Assay [2] deals with SW-620 colon.
Assay [3] has as its system KM12 colon.
Assay [4] has as its system ACHN renal.
Assay [5] has as its system NCI-H23 lung.
Assay [6] deals with HT29 colon.
Assay [7] deals with HS 578T breast.
Assay [8] deals with SF-539 CNS.
Assay [9] has as its system SN12C renal.
The test system of assay [10] is TK-10 renal.
For assay [11], the system named is NCI-H522 lung.

Values joined by “and” are separate entries in the source; they are usually repeats but may differ in a detail not shown here. Identical values can stand only once.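 Five concentrations, 48 hours, 96-well plates. GI50 = concentration required for 50% inhibition of growth. TGI: concentration producing complete growth inhibition.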 Some results are limits rather than exact numbers.

Regarding `O=c1c(SSc2coc3cc(F)ccc3c2=O)coc2cc(F)ccc12`, the TGI in assay [1] was 43.6 µM; in assay [2], 43 µM; in [3], 28.5 µM; in [4] it was 26.1 µM; in [5] it was above 100 µM; in [6] it was 32.3 µM. Also, the TGI in assay [7] was 68 µM; in assay [8] it was above 100 µM; in assay [9], 36.6 µM; in assay [10], 66.5 µM; in [11] it was 47.3 µM.

Consider `CCCCCCCCCCCCCCCCCCNc1ccn(C2OC(COP(=O)(O)OCC3CCC(n4cnc5c(=O)[nH]cnc54)O3)C(O)C2O)c(=O)n1` (stereo not drawn), for which the TGI in assay [1], in assay [2], in assay [3], in assay [4], in [5] and in assay [6] was above 100 µM each time. Moreover, the TGI in [7], in assay [8], in assay [9], in [10] and in [11] was above 100 µM throughout.

`O=C(/C=C/c1ccsc1)c1ccco1`: the TGI in assay [1] is 6.32 µM; in assay [2], 22 µM; in assay [3] it was above 22.2 µM; in [4] it was 22.8 µM; in assay [5], 30.9 µM; in assay [6], 22.8 µM. Moreover, the TGI in assay [7] is 29.6 µM; in assay [8] it was 32.5 µM; in [9], 28.6 µM; in [10], 50.5 µM; in [11], 4.67 µM.

With `COC(=O)c1ccccc1C#CC#Cc1ccccc1C(=O)OC`, the TGI in assay [1], in assay [2], in assay [3], in [4], in [5] and in [6] was above 10 µM in each case. Also, the TGI in assay [7], in assay [8], in assay [9], in assay [10] and in assay [11] was above 10 µM throughout.

In the case of `C=CCOc1ccccc1N=N/C(C#N)=N\Nc1ccccc1OCC=C`, the TGI in assay [1], in [2], in [3], in assay [4], in assay [5] and in assay [6] was above 100 µM throughout. In addition, the TGI in assay [7], in [8], in assay [9], in assay [10] and in assay [11] was above 100 µM each time.

`O=C1NC(N/N=C\C(O)C(O)C(O)CO)=N/C1=C/c1ccc(Cl)cc1` (stereo not drawn): the TGI is above 100 µM in assay [1]; above 100 µM in assay [2]; above 100 µM in assay [3]; 52.7 µM and 48.1 µM in [4]; above 100 µM in assay [5]; above 100 µM in assay [6]. The TGI in [7], in [8], in [9], in [10] and in assay [11] was above 100 µM throughout.

As to `O=C1C(NCCc2ccc(O)c(O)c2)=CC(=O)c2ncccc21`, the TGI is 15.8 µM in assay [1]; 32.3 µM in assay [2]; 30.5 µM in [3]; 33.5 µM in assay [4]; above 78.3 µM in assay [5]; above 93.3 µM in assay [6]. For the same compound, the TGI is 45.2 µM in assay [7]; 30.1 µM in [8]; 34.4 µM in assay [9]; above 71.6 µM in assay [10]; 7.31 µM in assay [11].

For `O=C(CN1CCN(Cc2ccccc2)CC1)N1CCCn2c1nc1ccccc1c2=O`, the TGI in [1], in assay [2], in assay [3], in [4], in assay [5] and in [6] was above 100 µM in each case. Moreover, the TGI in [7], in [8], in assay [9], in [10] and in assay [11] was above 100 µM in each case.

Regarding `[Se]=P(c1ccccc1)(c1ccccc1)c1ccc(C(c2ccccc2)=P(c2ccccc2)(c2ccccc2)c2ccccc2)cc1`, the TGI in [1] turned out to be 2.93 µM; in assay [2], 19.2 µM; in assay [3] it was 1.8 µM; in assay [4], 8.06 µM; in assay [5] it was 13.9 µM; in assay [6] it was 2.17 µM. Moreover, the TGI in assay [7] was found to be 5.24 µM; in [8] it was 17.8 µM; in assay [9] it was 10.2 µM; in assay [10] it was 6.88 µM; in assay [11], 1.7 µM.

On to `CC12CCC(C(=O)O1)C(C)(C)O2` (stereo not drawn), for which the TGI in assay [1], in assay [2], in assay [3], in assay [4], in [5] and in assay [6] was above 100 µM each time. The TGI in [7], in [8], in assay [9], in assay [10] and in assay [11] was above 100 µM each time.

On to `CC1(C)N=C(C(N)=O)c2ncn(CCO)c2N1`, for which the TGI in assay [1], in [2], in assay [3], in assay [4], in assay [5] and in assay [6] was above 100 µM throughout. The TGI in assay [7], in assay [8], in [9], in assay [10] and in assay [11] was above 100 µM each time.

On to `CCOC(=O)c1c(Br)c(-c2ccc(Br)cc2)c(Br)n1C`, for which the TGI is 80.7 µM in assay [1]; above 100 µM in assay [2]; 26.4 µM in assay [3]; 84.7 µM in assay [4]; above 100 µM in assay [5]; 42.5 µM in assay [6]. The TGI in assay [7] is above 100 µM; in [8], 73.2 µM; in [9], 84 µM; in [10], above 100 µM; in assay [11], 44.5 µM. In addition, the GI50 in [11] is 11.2 µM.
